The values below come from patent US12077503B2, “Substituted cyclic amides and their use as herbicides” (FMC CORPORATION, priority 2015, dated 2024).

What all share (assay type): in vivo
Test [1] deals with ryegrass, Italian (Italian ryegrass, Lolium multiflorum). Nature of the test: Test A preemergence. The note with it: Lolium multiflorum, pre-emergence, 240 h; for pest or weed control at 125 g/ha: 125 g ai/ha, Preemergence, visual injury rating after approximately 10 d, read-out: Ryegrass, Italian plant response rating (0 to 100 scale, 0 is no effect, 100 is complete control); for pest or weed control at 500 g/ha: 500 g ai/ha, preemergence, visual injury rating about 10 d after treatment, 0 to 100 scale (0 no effect, 100 complete control), read-out: Ryegrass, Italian plant response rating. An outline of the steps:
(§1)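 Greenhouse, ~10 d after spray; visual injury vs untreated controls, 0 = no effect, 100 = complete control. Preemergence: directed soil spray over planted seeds. Postemergence: plants 2–10 cm, 1–2 leaf stage. Loam/sand blend. Compound in non-phytotoxic solvent with surfactant.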

In test [2] the test system is Galium (catchweed bedstraw, Galium aparine). Nature of the test: Test A postemergence. The conditions noted are these: Galium, post-emergence, 240 h, 125 g ai/ha, Postemergence; visual injury after approximately 10 d; 0 to 100 scale where 0 is no effect and 100 is complete control; read-out: Plant response rating, Galium. An outline of the steps:
as §1

The next test concerns Kochia (Kochia scoparia). The test can be described thus: Test A postemergence. The note with it: Bassia scoparia, post-emergence, 240 h, 125 g ai/ha, Postemergence; visual injury after approximately 10 d; 0 to 100 scale where 0 is no effect and 100 is complete control; read-out: Plant response rating, Kochia. A digest of the protocol:
as §1

For test [3], the system named is barnyardgrass (Echinochloa crus-galli). Nature of the test: Test A postemergence. The conditions noted are these: Echinochloa crus-galli, post-emergence, 240 h, 125 g ai/ha, Postemergence; visual injury after approximately 10 d; 0 to 100 scale where 0 is no effect and 100 is complete control; read-out: Plant response rating, Barnyardgrass. A digest of the protocol: as §1

Test [4] concerns blackgrass (Alopecurus myosuroides). Nature of the test: Test A postemergence. The note with it: Alopecurus myosuroides, post-emergence, 240 h, 125 g ai/ha, Postemergence; visual injury after approximately 10 d; 0 to 100 scale where 0 is no effect and 100 is complete control; read-out: Plant response rating, Blackgrass. A digest of the protocol:
as §1

The next test has as its system corn (Zea mays). Nature of the test: Test A postemergence. The note with it: Zea mays, post-emergence, 240 h, 125 g ai/ha, Postemergence; visual injury after approximately 10 d; 0 to 100 scale where 0 is no effect and 100 is complete control. A digest of the protocol:
as §1

Test [5] deals with giant foxtail (Setaria faberii). The test can be described thus: Test A postemergence. The conditions noted are these: Setaria faberi, post-emergence, 240 h, 125 g ai/ha, Postemergence; visual injury after approximately 10 d; 0 to 100 scale where 0 is no effect and 100 is complete control; read-out: Plant response rating, Foxtail, Giant. An outline of the steps: as §1
Test [6] has as its system pigweed (Amaranthus retroflexus). Nature of the test: Test A postemergence. The note with it: Amaranthus retroflexus, post-emergence, 240 h, 125 g ai/ha, Postemergence; visual injury after approximately 10 d; 0 to 100 scale where 0 is no effect and 100 is complete control; read-out: Plant response rating, Pigweed. An outline of the steps:
as §1

The subject of test [7] is ragweed (common ragweed, Ambrosia elatior). The test can be described thus: Test A postemergence. The conditions noted are these: Ambrosia artemisiifolia, post-emergence, 240 h, 125 g ai/ha, Postemergence; visual injury after approximately 10 d; 0 to 100 scale where 0 is no effect and 100 is complete control; read-out: Plant response rating, Ragweed. A digest of the protocol: as §1

Test [8] deals with ryegrass, Italian (Italian ryegrass, Lolium multiflorum). Nature of the test: Test A postemergence. The note with it: Lolium multiflorum, post-emergence, 240 h, 125 g ai/ha, Postemergence; visual injury after approximately 10 d; 0 to 100 scale where 0 is no effect and 100 is complete control; read-out: Plant response rating, Ryegrass, Italian. A digest of the protocol:
as §1

Test [9] has as its system wheat (Triticum aestivum). The test can be described thus: Test A postemergence. The note with it: Triticum aestivum, post-emergence, 240 h, 125 g ai/ha, Postemergence; visual injury after approximately 10 d; 0 to 100 scale where 0 is no effect and 100 is complete control; read-out: Plant response rating, Wheat. An outline of the steps:
as §1

Test [10] has as its system barnyardgrass (Echinochloa crus-galli). The test can be described thus: Test B flooded paddy test. The note with it: Echinochloa crus-galli, Flood, 250 g ai/ha; scale of 0 to 100 where 0 is no effect and 100 is complete control; read-out: Barnyardgrass plant response rating. An outline of the steps: (§2)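 Flooding to 3 cm over soil accompanied treatment, which consisted of adding compound to the standing water around 2-leaf plants; depth was then maintained. Visual assessment versus controls followed at 13 to 15 d (scale 0–100, 0 meaning no effect).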

Test [11] deals with ducksalad (Heteranthera limosa). The test can be described thus: Test B flooded paddy test. The conditions noted are these: Heteranthera limosa, Flood, 250 g ai/ha; scale of 0 to 100 where 0 is no effect and 100 is complete control; read-out: Ducksalad plant response rating. An outline of the steps: as §2
In the next test the test system is rice (Oryra sativa). The test can be described thus: Test B flooded paddy test. The note with it: Oryza sativa, Flood, 250 g ai/ha; scale of 0 to 100 where 0 is no effect and 100 is complete control; read-out: Rice plant response rating. An outline of the steps:
as §2

Test [12] relates to sedge, umbrella (small-flower umbrella sedge, Cyperus difformis). Nature of the test: Test B flooded paddy test. The note with it: Cyperus difformis, Flood, 250 g ai/ha; scale of 0 to 100 where 0 is no effect and 100 is complete control; read-out: Sedge, Umbrella plant response rating. An outline of the steps:
as §2

Each structure is given as a SMILES string.

`Cc1ccc([C@H]2CNC(=S)[C@@H]2C(=O)Nc2ccccc2F)cc1` (racemic) [Compound 945]: the pest or weed control at 125 g/ha came out at 0% in [1]; 20% in test [2]; 0% in the test on Kochia (Kochia scoparia); 80% in test [3]; 0% in [4]; 0% in test [5]. Also, the pest or weed control at 125 g/ha in test [6], in test [7] and in [8] was 0% each time. Besides, the pest or weed control at 500 g/ha in test [1] stood at 0%. The compound further came in with a Corn plant response rating (crop injury, 0 = no effect, 100 = complete kill) at 125 g/ha in the test with corn (Zea mays) of 0%. The plant injury at 125 g/ha in test [9] was 0%. Besides, the pest or weed control at 250 g/ha worked out at 0% in test [10], 85% in [11], 0% in the test on rice (Oryra sativa) and 0% in test [12].

Regarding `Cc1ccc([C@H]2CNC(=S)[C@@H]2C(=O)Nc2cccc(F)c2F)cc1` (racemic) [Compound 946], the pest or weed control at 125 g/ha in test [1] amounted to 0%; in test [2], 0%; in the test on Kochia (Kochia scoparia), 0%; in test [3], 60%; in test [4], 0%; in test [5], 0%. For the same compound, the pest or weed control at 125 g/ha in [6], in [7] and in test [8] was 0% throughout. For the same compound, the pest or weed control at 500 g/ha in test [1] turned out to be 0%. Further, the Corn plant response rating (crop injury, 0 = no effect, 100 = complete kill) at 125 g/ha in the test with corn (Zea mays) was 0%. Further, in test [9], the plant injury at 125 g/ha worked out at 0%. Moreover, the pest or weed control at 250 g/ha (in test [10]; in [11]; in the test on rice (Oryra sativa); in test [12]) was 0% in each case.

On to `CSc1ccccc1NC(=O)[C@H]1C(=O)NC[C@@H]1c1cc(F)cc(Cl)c1` [Compound 977], for which the pest or weed control at 125 g/ha in [1] came out at 0%; in [2], 40%; in the test with Kochia (Kochia scoparia), 70%; in test [4], 0%; in test [5] it was 90%; in test [6] it was 30%. Further, the pest or weed control at 125 g/ha in test [7] came out at 20%; in test [8], 0%. Moreover, in [1], the pest or weed control at 500 g/ha is 40%. The compound further showed a Corn plant response rating (crop injury, 0 = no effect, 100 = complete kill) at 125 g/ha with corn (Zea mays) of 0%. Also, the plant injury at 125 g/ha in test [9] is 0%. In addition, the pest or weed control at 250 g/ha was found to be 15% in test [10], 100% in test [11], 15% with rice (Oryra sativa) and 0% in [12].

On to `CN1C[C@H](c2cc(F)cc(Cl)c2)[C@@H](C(=O)Nc2ccccc2S(C)(=O)=O)C1=O` [Compound 979], for which the pest or weed control at 125 g/ha was 50% in test [1]; 40% in [2]; 30% with Kochia (Kochia scoparia); 60% in test [4]; 90% in test [5]; 40% in test [6]. The pest or weed control at 125 g/ha in [7] and in [8] was 20% throughout. Further, in [1], the pest or weed control at 500 g/ha turned out to be 60%. The compound further returned a Corn plant response rating (crop injury, 0 = no effect, 100 = complete kill) at 125 g/ha in the test on corn (Zea mays) of 30%. Also, the plant injury at 125 g/ha in test [9] is 50%. The pest or weed control at 250 g/ha in test [10] came out at 60%; in test [11], 100%; with rice (Oryra sativa), 0%; in test [12] it was 0%.
